Laboratory results from US9443060B2, “Method and system to provide personalized pharmaceutical compositions and dosages” (Volant Holdings GMBH, priority 2009, dated 2016).

Experiments:
Assay type in all cases: in vivo, human
[1] = test system: hepatic gluconeogenesis (GNG); test: Glucose supply and insulin demand model: effect on hepatic gluconeogenesis; conditions: for GNG inhibition: adjustment factor = decrease in hepatic gluconeogenesis at the therapeutic dose of Table 1, T2D; for Score HGI: Metformin 2000 mg, Glyburide 10 mg, Pioglitazone 45 mg, Insulin Glargine 0.5 U/kg daily, pH encapsulated glucose 3.0 grams/day
Procedure: (§1) Therapeutic targets of the glucose supply (CE, 1+2; HGU, 3; GNG, 4; IR, 5) and insulin demand (PGU, 6; PIE, 7) model are presented in FIG. 1. To identify quantitative differences between antidiabetic agents on CE, HGU, GNG, IR, PGU, and PIE, multidatabase searches (Cochrane Central Register of Controlled Trials and Cochrane Register of Systematic Reviews, Embase, OVID Healthstar, OVID Journals, and PubMed) were conducted cross-referencing title and keywords for all selected antidiabetic therapies and their respective targets.
(§2) Alpha-glucosidase, biguanide, and thiazolidinedione (TZD) studies with long-term, pre-post design at maximal therapeutic doses were identified to simulate chronic administration. To maintain consistency with cardiovascular trials and accommodate known influences of hyperglycemia and hyperinsulinemia on the respective targets,^13-16 studies including patients with HbA1c in the range of 6-8% and body mass index (BMI)≧30 kg/m^2 were preferentially selected. In the event multiple studies were available to identify the effect of an agent on a therapeutic target, the mean percent change was used. Conversely, if there was evidence that an agent would elicit a response on a given target but no mathematical representation of the difference was provided, conservative estimates consistent with the scale of other agents and the degree of glucose regulation were instituted to best represent the expected effect. Individual agents were then characterized for the 24 h percent change from baseline for CE, HGU, GNG, IR, PGU, and PIE. Carbohydrate exposure was determined as the combined effect of caloric intake and intestinal carbohydrate absorption. Hepatic glucose uptake was defined as the reported value obtained immediately following oral glucose loading. Because GNG is known to be enhanced in the fasting state and persistent throughout the prandial phase,^17,18 effect was determined during the fasting state and considered equivalent throughout the prandial phase. For studies evaluating fasting glucose and insulin concentrations, an index of IR was determined by homeostasis model assessment of insulin resistance (HOM-AIR) using the following formula: Insulin (mU/liter)×Glucose (mmol)/22.5.^19 To account for known differences in secretory and uptake dynamics during the fasting and prandial phases, studies identifying the impact of therapies during the fasting state (or simulated hyperinsulinemic euglycemic clamp) and prandial phase (or oral glucose load insulin clamp) were specifically identified for changes in PGU (glucose infusion rate) and PIE (insulin concentrations) according to Equation (1): […]
(§3) For sulfonylurea and insulin-based therapies, insulin concentration time profiles were obtained and superimposed on the baseline 24 h insulin concentration time profile of T2D patients (FIG. 2) to calculate the increase in PIE (trapezoidal rule).^20 Calculated increases in incremental and cumulative insulin exposure were correlated to known insulin dose-response effects on HGU, GNG, and PGU (FIG. 3),^18,21 according to the equation y=mx+b. Twenty-four-hour increases in HGU, PGU, and PIE and decreases in GNG were compared to baseline values and percent change calculated.
(§4) With alpha-glucosidase, biguanide, TZD, secretagogue, and insulin therapies characterized for their respective impacts on CE, HGU, GNG, IR, PIE, and PGU, identification of their effect on the glucose supply (decrease in CE, increase in HGU, decrease in GNG, decrease in IR) and insulin demand (increase in PIE, increase in PGU) dynamic was assessed according to Equation (2), which provides the SD ratio according to the invention: […]

[2] = test system: peripheral insulin exposure (PIE); test: Glucose supply and insulin demand model: effect on peripheral insulin exposure; conditions: for PIE: adjustment factor = increase in peripheral insulin exposure at the therapeutic dose of Table 1, T2D; for Score PIE: Metformin 2000 mg, Glyburide 10 mg, Pioglitazone 45 mg, Insulin Glargine 0.5 U/kg daily, pH encapsulated glucose 3.0 grams/day
Procedure: as §1, §2, §3, §4
Twenty-four-hour steady state insulin concentration time curves were superimposed on the baseline secretion profile of the standard T2D patient.

insulin resistance (IR) = test: Glucose supply and insulin demand model: effect on insulin resistance; conditions: for IR reduction: adjustment factor = decrease in insulin resistance at the therapeutic dose of Table 1, T2D; for Score IR: Metformin 2000 mg, Glyburide 10 mg, Pioglitazone 45 mg, Insulin Glargine 0.5 U/kg daily, pH encapsulated glucose 3.0 grams/day
Procedure: as §1, §2, §3, §4

[3] = test system: peripheral glucose uptake (PGU); test: Glucose supply and insulin demand model: effect on peripheral glucose uptake; conditions: for PGU: adjustment factor = increase in peripheral glucose uptake at the therapeutic dose of Table 1, T2D; for Score PGU: Metformin 2000 mg, Glyburide 10 mg, Pioglitazone 45 mg, Insulin Glargine 0.5 U/kg daily, pH encapsulated glucose 3.0 grams/day
Procedure: as §1, §2, §3, §4

[4] = test system: hepatic glucose uptake (HGU); test: Glucose supply and insulin demand model: effect on hepatic glucose uptake; conditions: for HGU uptake: adjustment factor = increase in hepatic glucose uptake at the therapeutic dose of Table 1, T2D; for Score HGU: Metformin 2000 mg, Glyburide 10 mg, Pioglitazone 45 mg, Insulin Glargine 0.5 U/kg daily, pH encapsulated glucose 3.0 grams/day
Procedure: as §1, §2, §3, §4

[5] = test system: carbohydrate exposure (CE); test: Glucose supply and insulin demand model: effect on carbohydrate exposure; parameters: scale not given here; conditions: for Score CE: Metformin 2000 mg, Glyburide 10 mg, Pioglitazone 45 mg, Insulin Glargine 0.5 U/kg daily, pH encapsulated glucose 3.0 grams/day; for CE inhibition: adjustment factor = decrease in carbohydrate exposure at the therapeutic dose of Table 1, T2D
Procedure: as §1, §2, §3, §4

Molecule: C[C@H]1O[C@H](O[C@H]2[C@H](O)[C@@H](O)[C@@H](O[C@H]3[C@H](O)[C@@H](O)C(O)O[C@@H]3CO)O[C@@H]2CO)[C@H](O)[C@@H](O)[C@@H]1N[C@H]1C=C(CO)[C@@H](O)[C@H](O)[C@H]1O (stereo partly drawn) [Acarbose]
- GNG inhibition [1]: 0.05
- PIE [2]: 0.05
- IR reduction (insulin resistance (IR)): 0.15
- PGU [3]: 0.25
- HGU uptake [4]: 0.15

Molecule: CC(=O)c1ccc(S(=O)(=O)NC(=O)NC2CCCCC2)cc1 [Acetohexamide]
- GNG inhibition [1]: 0.07
- PIE [2]: 0.21
- IR reduction (insulin resistance (IR)): 0.00
- PGU [3]: 0.36
- HGU uptake [4]: 0.14

Molecule: CCCNC(=O)NS(=O)(=O)c1ccc(Cl)cc1 [Chlorpropamide]
- GNG inhibition [1]: 0.07
- PIE [2]: 0.21
- IR reduction (insulin resistance (IR)): 0.00
- PGU [3]: 0.36
- HGU uptake [4]: 0.14

Molecule: CCC1=C(C)CN(C(=O)NCCc2ccc(S(=O)(=O)NC(=O)N[C@H]3CC[C@H](C)CC3)cc2)C1=O [Glimepiride]
- GNG inhibition [1]: 0.08
- PIE [2]: 0.24
- IR reduction (insulin resistance (IR)): 0.00
- PGU [3]: 0.39
- HGU uptake [4]: 0.18

Molecule: Cc1cnc(C(=O)NCCc2ccc(S(=O)(=O)NC(=O)NC3CCCCC3)cc2)cn1 [Glipizide]
- GNG inhibition [1]: 0.08
- IR reduction (insulin resistance (IR)): 0.00

Molecule: COc1ccc(Cl)cc1C(=O)NCCc1ccc(S(=O)(=O)NC(=O)NC2CCCCC2)cc1 [Glyburide]
- Score HGI [1]: 0.07
- GNG inhibition [1]: 0.07
- Score PIE [2]: 0.21
- PIE [2]: 0.21
- Score IR (insulin resistance (IR)): 0.00
- IR reduction (insulin resistance (IR)): 0.00
- Score PGU [3]: 0.36
- PGU [3]: 0.36
- Score CE [5]: 0.00
- Score HGU [4]: 0.14
- HGU uptake [4]: 0.14

Molecule: CC(C)[C@H]1CC[C@H](C(=O)N[C@H](Cc2ccccc2)C(=O)O)CC1 [Nateglinide]
- GNG inhibition [1]: 0.11
- PIE [2]: 0.34
- IR reduction (insulin resistance (IR)): 0.00
- PGU [3]: 0.60
- HGU uptake [4]: 0.21

Molecule: CCc1ccc(CCOc2ccc(CC3SC(=O)NC3=O)cc2)nc1 (stereo not drawn) [Pioglitazone]
- Score HGI [1]: 0.21
- GNG inhibition [1]: 0.21
- Score PIE [2]: −0.10
- PIE [2]: −0.10
- Score IR (insulin resistance (IR)): 0.35
- IR reduction (insulin resistance (IR)): 0.35
- Score PGU [3]: 0.59
- PGU [3]: 0.59
- Score CE [5]: 0.00
- Score HGU [4]: 0.40
- HGU uptake [4]: 0.40

Molecule: CCOc1cc(CC(=O)N[C@@H](CC(C)C)c2ccccc2N2CCCCC2)ccc1C(=O)O [Repaglinide]
- GNG inhibition [1]: 0.07
- PIE [2]: 0.20
- IR reduction (insulin resistance (IR)): 0.00
- PGU [3]: 0.31
- HGU uptake [4]: 0.16

Molecule: CN(CCOc1ccc(CC2SC(=O)NC2=O)cc1)c1ccccn1 (stereo not drawn) [Rosiglitazone]
- GNG inhibition [1]: 0.23
- PIE [2]: −0.10
- IR reduction (insulin resistance (IR)): 0.39

Molecule: Cc1ccc(S(=O)(=O)NC(=O)NN2CCCCCC2)cc1 [Tolazamide]
- GNG inhibition [1]: 0.07
- PIE [2]: 0.21
- IR reduction (insulin resistance (IR)): 0.00
- PGU [3]: 0.36
- HGU uptake [4]: 0.14

Molecule: CCCCNC(=O)NS(=O)(=O)c1ccc(C)cc1 [Tolbutamide]
- GNG inhibition [1]: 0.07
- PIE [2]: 0.21
- IR reduction (insulin resistance (IR)): 0.00
- PGU [3]: 0.36
- HGU uptake [4]: 0.14

Molecule: Cc1c(C)c2c(c(C)c1O)CCC(C)(COc1ccc(CC3SC(=O)NC3=O)cc1)O2 (stereo not drawn) [Troglitazone]
- GNG inhibition [1]: 0.22
- PIE [2]: −0.10
- IR reduction (insulin resistance (IR)): 0.35
- PGU [3]: 0.67
- HGU uptake [4]: 0.40

Molecule: Insulin Aspart
- GNG inhibition [1]: 0.14
- PIE [2]: 0.42
- IR reduction (insulin resistance (IR)): 0.00
- PGU [3]: 0.80
- CE inhibition [5]: 0.00
- HGU uptake [4]: 0.23

Molecule: Insulin Aspart Protamine
- GNG inhibition [1]: 0.10
- PIE [2]: 0.28
- IR reduction (insulin resistance (IR)): 0.00
- PGU [3]: 0.40
- CE inhibition [5]: 0.00
- HGU uptake [4]: 0.23
